# Read-outs that look alike come from different tables or passages of the source. Where no end group is shown, it is not given here.
# Biological target: HLA class I molecule
# Assay: HLA class I peptide binding affinity assay (inhibition of 125I-radiolabeled probe peptide binding to purified HLA)
# Parameters: species or system human
# Settings: read-out: Observed Affinity (IC50, (nM))
# Procedure: Epstein-Barr virus (EBV)-transformed homozygous cell lines, fibroblasts, CIR, or 721.22 transfectants are used as sources of HLA class I molecules. […] HLA molecules are purified from lysates by affinity chromatography. The lysates are passed over a column of Sepharose CL-4B beads coupled to an appropriate antibody. […] A 1/25 volume of 2.0 M Tris, pH 6.8, is added to the eluate to reduce the pH to […]. Eluates are then concentrated by centrifugation in Centriprep 30 concentrators (Amicon, Beverly, MA). Protein content is evaluated by a BCA protein assay (Pierce Chemical Co., Rockford, IL) and confirmed by SDS-PAGE.
# Following incubation, MHC-peptide complexes are separated from free peptide by gel filtration on 7.8 mm×15 cm TSK200 columns (TosoHaas 16215, Montgomeryville, PA). Because the large size of the radiolabeled peptide used for the DRB1*1501 (DR2w2(31) assay makes separation of bound from unbound peaks more difficult under these conditions, all DRB1*1501 (DR2w2(31) assays were performed using a 7.8 mm×30 cm TSK2000 column eluted at 0.6 mLs/min. The eluate from the TSK columns is passed through a Beckman 170 radioisotope detector, and radioactivity is plotted and integrated using a Hewlett-Packard 3396A integrator, and the fraction of peptide bound is determined.
# Radiolabeled peptides are iodinated using the chloramine-T method. […] All subsequent inhibition and direct binding assays are performed using these HLA concentrations.
# Since under these conditions [label]<[HLA] and IC50≥[HLA], the measured IC50 values are reasonable approximations of the true KD values. […] For database purposes, and inter-experiment comparisons, relative binding values are compiled. These values can subsequently be converted back into IC50 nM values by dividing the IC50 nM of the positive controls for inhibition by the relative binding of the peptide of interest.
# HLA binding assays were used to evaluate either the affinity of interaction of a given epitope with a selected HLA molecule or the stability.
# The measurements are plotted against the predicted affinity in FIG. 1.
Compound,IC50 (allele A02.01),other results
VMSDTTYKIY,–,IC50 (allele A01.01): 376 nM
HMNIANLLGA,430 nM,–
YLGNHMNIAN,1340 nM,–
LSFLSSWDY,–,IC50 (allele A01.01): 52.9 nM
ILLPEDTPPL,6.7 nM,–
NVVPLSDLLL,741 nM,–
MSDTTYKIY,–,IC50 (allele A01.01): 10.2 nM
LVVVGADGV,1190 nM,–
CC(C)C[C@H](NC(=O)[C@H](CO)NC(=O)[C@H](CCCCN)NC(=O)[C@H](CC(C)C)NC(=O)[C@@H](NC(=O)[C@H](CO)NC(=O)[C@@H]1CCCN1C(=O)[C@H](CC(C)C)NC(=O)[C@@H](N)Cc1ccccc1)[C@@H](C)O)C(=O)O,21 nM,IC50 (allele B08.01): 1970 nM
CC[C@H](C)[C@H](N)C(=O)N[C@H](C(=O)N[C@H](C(=O)N[C@@H](CCC(=O)O)C(=O)N[C@@H](Cc1ccccc1)C(=O)N[C@@H](CCSC)C(=O)N[C@H](C(=O)N[C@@H](Cc1ccc(O)cc1)C(=O)NCC(=O)N[C@@H](CC(N)=O)C(=O)O)[C@@H](C)O)[C@@H](C)CC)[C@@H](C)CC,1550 nM,–
IVSRTLLLV,12.7 nM,–
VMSDTTYKI,19.6 nM,–
GLSISCTTL,114 nM,–
YMANGSLLNY,–,IC50 (allele A01.01): 13.2 nM
KISNWSLKK,–,IC50 (Allele A11.01): 9.8 nM
LLSTPPLSPS,1770 nM,–
CC[C@H](C)[C@H](NC(=O)[C@@H]1CCCN1C(=O)[C@H](CC(C)C)NC(=O)[C@@H](N)CC(C)C)C(=O)N1CCC[C@H]1C(=O)N1CCC[C@H]1C(=O)N[C@@H](CC(C)C)C(=O)N[C@@H](CO)C(=O)N1CCC[C@H]1C(=O)N[C@@H](CO)C(=O)O,449 nM,–
AMTTSSSQK,–,IC50 (Allele A11.01): 162 nM

Compound,IC50 (allele A02.01),other results
IIIEFMTYG,779 nM,–
LVRLSSCVPV,1240 nM,–
ILDTAGHEEY,–,IC50 (allele A01.01): 64.2 nM
KQWSSVTSL,26.5 nM,–
CC[C@H](C)[C@H](NC(=O)[C@H](CC(C)C)NC(=O)[C@H](CCC(N)=O)NC(=O)[C@@H](NC(=O)[C@@H](NC(=O)[C@H](CO)NC(=O)[C@@H](NC(=O)[C@H](CC(C)C)NC(=O)[C@@H](N)CS)[C@@H](C)O)[C@@H](C)O)C(C)C)C(=O)N[C@@H](CCSC)C(=O)O,716 nM,IC50 (allele A01.01): 11000 nM
KSLVRLSSCV,280 nM,–
LLPEDTPPL,2.8 nM,–
GSNEVTTRY,–,IC50 (allele A01.01): 606 nM
TLQRSSLWCL,118 nM,–
YIIIEFMTYG,186 nM,–
ALAPTLTHML,39 nM,–
CLSFLSSWDY,–,IC50 (allele A01.01): 987 nM
STVQLIMQL,8540 nM,–
TTNAFSGEY,–,IC50 (allele A01.01): 4.4 nM
LLGRNSFEVC,2080 nM,–
PLSDLLLEML,6470 nM,–
LATEKSRWSG,23300 nM,IC50 (allele B08.01): 46600 nM
LLYITAFFLL,323 nM,–

# Further lines, with some results ahead:
IC50 (allele A02.01),Compound,other results
10500 nM,NVVPLYGLL,–
8.1 nM,AIQPVLWTT,–
12000 nM,PLNDLLLEML,–
324 nM,FLSSWDYRRM,–
78.7 nM,ITAFFLLDI,–
3510 nM,LIMQLMPFG,–
797 nM,PLYGLLLEML,–
3030 nM,NVVPLCDLL,–
4190 nM,NVVPLNDLLL,–
0.4 nM,FALCGFWQI,–
29.9 nM,SLVRLSSCV,–
1.3 nM,RLWHLLLQV,–
1710 nM,MSVCFFFFSV,–
50.9 nM,RLWHLLLQVT,–
59 nM,ALAPTLTHM,–
93.2 nM,FLLALWECS,–
1200 nM,VVPLCDLLL,–
3030 nM,GMNQRPILT,–
1580 nM,FILMELMAGG,–
139 nM,ALMSAMTTS,–
4440 nM,YMANGSLLN,–
42.9 nM,YLTKWPKFFL,–
4730 nM,VQWRSLGSL,–
1370 nM,NVVPLCDLLL,–
7490 nM,ITAFFFCWI,–
1210 nM,VRLSSCVPVA,–
